Measured values from ChEMBL document CHEMBL1121952, “Directional probes of the hydrophobic component of the aromatic ring binding site of norepinephrine N-methyltransferase” (J Med Chem, 1982).

Columns and labels:
[1] = biological target: T1, Phenylethanolamine N-methyltransferase (Bos taurus, UniProt P10938); assay: (§1) The inhibitory constant(Ki) value for Norepinephrine N-methyl-transferase was calculated
T1 sequence (P10938 whole entry): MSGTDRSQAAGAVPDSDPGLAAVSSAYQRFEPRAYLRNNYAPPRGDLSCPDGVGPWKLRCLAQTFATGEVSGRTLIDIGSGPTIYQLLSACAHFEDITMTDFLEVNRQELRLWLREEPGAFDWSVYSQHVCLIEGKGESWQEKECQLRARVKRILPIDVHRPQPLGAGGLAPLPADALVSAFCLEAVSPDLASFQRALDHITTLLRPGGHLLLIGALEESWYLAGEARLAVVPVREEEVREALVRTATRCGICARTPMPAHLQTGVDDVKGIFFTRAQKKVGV

[2] = Vmax/Km x100 value of the compound; assay type: ADME
[3] = compound: NCC(O)c1ccc(-c2ccccc2)cc1; assay: as §1
[4] = compound: NCC(O)c1cccc2ccccc12; assay: as §1
[5] = compound: NCC(O)c1cccc(-c2ccccc2)c1; assay: as §1
[6] = compound: NCC(O)c1ccc2ccccc2c1; assay: as §1

Question: For CC(N)Cc1ccc(-c2ccccc2)cc1 (stereo not drawn), which Ki [1] is on record?
Answer: 262 µM

Question: Which Ki [1] does the source give for CC(N)Cc1cccc(-c2ccccc2)c1 (stereo not drawn) here?
Answer: > 2000 µM

Question: For CC(N)c1ccc(-c2ccccc2)cc1 (stereo not drawn), which Ki [1] is on record?
Answer: 737 µM

Question: For NCC(O)c1ccc(-c2ccccc2)cc1 (stereo not drawn), which “Vmax / Kmax100” value [2] is on record?
Answer: 5.44

Question: Which Ki [1] does the source give for CC(N)c1cccc(-c2ccccc2)c1 (stereo not drawn) here?
Answer: 89 µM

Question: For NCC(O)c1cccc(-c2ccccc2)c1 (stereo not drawn), which “Vmax / Kmax100” value [2] is on record?
Answer: 1.42

Question: For NCC(O)c1ccc2ccccc2c1 (stereo not drawn), which “Vmax / Kmax100” value [2] is on record?
Answer: 5.6

Question: Which “Vmax / Kmax100” value [2] does the source give for NCC(O)c1cccc2ccccc12 (stereo not drawn) here?
Answer: 1.29

Question: With NC[C@@H](O)c1ccccc1 as the molecule, how does the “Vmax / Kmax100” value [2] read?
Answer: 1.62

B1: Phenylethanolamine N-methyltransferase (Bos taurus), P10938 (protein)
chain: T1 sequence (P10938 whole entry)
Question: Which Km [3] does the source give for B1 here?
Answer: 64 µM

Question: What about the Km [4] of the same molecule?
Answer: 132 µM

Question: What about the Km [5] of the same molecule?
Answer: 656 µM

Question: And the Km [6]?
Answer: 20 µM
